# In PMC6934184, “Selective DNA-PKcs inhibition extends the therapeutic index of localized radiotherapy and chemotherapy” (The Journal of Clinical Investigation, 2019):
# Biological target: T1, MAPK11 (p38 beta) (Homo sapiens, UniProt Q15759)
# T1 construct: purchased Thermo Fisher Scientific (Life Technologies) SelectScreen
# Test: SelectScreen Z'LYTE
# Assay type: biochemical
# Procedure, shortened: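 SelectScreen broad panel; activity (Z'LYTE, Adapta) plus binding formats. ATP: Km app for CSF1R Z'LYTE; 10 for CAMK1 Adapta. Readout = % per kinase.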
# T1 sequence (Q15759 whole entry): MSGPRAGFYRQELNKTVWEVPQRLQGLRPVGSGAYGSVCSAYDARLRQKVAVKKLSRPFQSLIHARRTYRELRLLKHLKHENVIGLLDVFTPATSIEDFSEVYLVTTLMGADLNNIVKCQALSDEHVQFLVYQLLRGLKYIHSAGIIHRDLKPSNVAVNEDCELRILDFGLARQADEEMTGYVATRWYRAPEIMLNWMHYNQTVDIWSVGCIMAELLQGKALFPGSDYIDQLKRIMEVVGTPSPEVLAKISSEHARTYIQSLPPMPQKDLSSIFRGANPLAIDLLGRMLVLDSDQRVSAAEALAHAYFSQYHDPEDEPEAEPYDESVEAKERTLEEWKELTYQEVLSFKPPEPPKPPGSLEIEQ
smiles,measurement,value
CN(C(=O)CN1CCOCC1)c1ccc2sc3c(-c4cccc5c(=O)cc(N6CC7CCC(C6)O7)oc45)cccc3c2c1 [NU5455],inhibition at 1 µM,9.5%
